The subject of one data set is Phytophthora infestans. Type of data set: in vivo. Particulars: 500 ppm of active ingredient; tomato, preventive; evaluated 7 days after inoculation.
The nature of data set [1]: Measurement of logP values by HPLC on reversed phase columns (EEC directive 79/831 Annex V.A8). Type of data set: physicochemical. The note with it: for Log P: pH 2.7, 0.1% formic acid in water / acetonitrile; for chromatographic logP: reversed-phase HPLC column. On the procedure: Measurement of logP values was performed according EEC directive 79/831 Annex V.A8 by HPLC (High Performance Liquid Chromatography) on reversed phase columns with the following methods: […]

The test system of another data set is Plasmopara viticola. The experiment in a line: Plasmopara test (grapevines) / preventive. Format: in vivo. The note with it: 100 ppm of active ingredient, evaluated 6 days after inoculation. The procedure:
• Plasmopara Test (Grapevines)/Preventive
Solvent: 24.5 parts by weight of acetone • 24.5 parts by weight of dimethylacetamide
Emulsifier: 1 part by weight of alkylaryl polyglycol ether
To produce a suitable preparation of active compound, 1 part by weight of active compound is mixed with the stated amounts of solvent and emulsifier, and the concentrate is diluted with water to the desired concentration.
To test for preventive activity, young plants are sprayed with the preparation of active compound at the stated rate of application. After the spray coating has dried on, the plants are inoculated with an aqueous spore suspension of Plasmopara viticola and then remain for 1 day in an incubation cabinet at approximately 20° C. and a relative atmospheric humidity of 100%. The plant is subsequently placed for 4 days in a greenhouse at approximately 21° C. and a relative atmospheric humidity of approximately 90%. The plants are then misted and placed for 1 day in an incubation cabinet.
The test is evaluated 6 days after the inoculation. 0% means an efficacy which corresponds to that of the untreated control, while an efficacy of 100% means that no disease is observed.

These results are taken from patent publication US20130045995A1 (priority 2010, published 2013).

Like-named read-outs stand apart in the source and are kept apart here.

Regarding `Cc1snnc1C(=NOCc1csc(NC(=O)C2CN(C)c3ccccc3O2)n1)c1ccccc1` (racemic) [Example 17], in the data set on Phytophthora infestans, the efficacy turned out to be 97%.

Regarding `Cc1snnc1C(=NOCc1cccc(NC(=O)C2CN(C)c3ccccc3O2)n1)c1ccccc1` (racemic) [Example 18], the efficacy with Phytophthora infestans was determined as 100%. In data set [1] (HPLC), the Log P – broadly, a log measure of how a compound divides between an organic and an aqueous phase – worked out at 4.56.

As to `Cc1snnc1C(=NOCc1cccc(NC(=O)C2CC(=O)c3cc(F)ccc3O2)n1)c1ccccc1` (mixture of isomers) [Example 16], the efficacy in the data set on Phytophthora infestans was determined as 95%.

`Cc1snnc1C(=NOCc1csc(NC(=O)C2COc3ccccc3O2)n1)c1ccccc1` (racemic) [Example 6]: the values for the efficacy in the data set with Plasmopara viticola and in the data set with Phytophthora infestans were 77% and 100%, respectively.

As for `Cc1cccc2c1OC(C(=O)Nc1cccc(CON=C(c3ccccc3)c3nnsc3C)n1)CO2` (racemic) [Example 12], the efficacy with Phytophthora infestans turned out to be 95%. In addition, the “Log P” value in data set [1] (HPLC) is 4.73.

Consider `Cc1snnc1C(=NOCc1csc(NC(=O)C2CCc3ccccc3O2)n1)c1ccccc1` (racemic) [Example 2], for which the efficacy in the data set with Phytophthora infestans is recorded as 100%.

As for `Cc1snnc1C(=NOCc1cccc(NC(=O)C2Cc3ccccc3O2)n1)c1ccccc1` (racemic) [Example 15], the efficacy with Plasmopara viticola is reported as 74%; with Phytophthora infestans, 100%.

For the molecule `Cc1snnc1C(=NOCc1csc(NC(=O)C2COc3ccccc3O2)n1)c1ccccc1` (stereo not drawn) [Example 1, N-{4-[({[(5-methyl-1,2,3-thiadiazol-4-yl)(phenyl)methylene]amino}oxy)methyl]-1,3-thiazol-2-yl}-2,3-dihydro-1,4-benzodioxine-2-carboxamide], the efficacy in the data set on Plasmopara viticola worked out at 94%; in the data set on Phytophthora infestans, 100%. The chromatographic logP in data set [1] (pH 2.7, [I1] main isomer, HPLC, pH 2.7, 0.1% formic acid, read-out: Log P) was determined as 3.99; in data set [1] (pH 2.7, mixture of Z and E diastereoisomers, two values, read-out: logP(HCOOH)) it was 3.99.

`Cc1snnc1C(=NOCc1cccc(NC(=O)C2CCc3ccccc3O2)n1)c1ccccc1` (racemic) [Example 14]: the efficacy in the data set on Phytophthora infestans amounted to 97%. Also, the lipophilicity (Log P) in data set [1] (HPLC) came out at 4.66.

In the data set with Phytophthora infestans, `Cc1snnc1C(=NOCc1csc(NC(=O)C2Cc3ccccc3O2)n1)c1ccccc1` (racemic) [Example 3] had an efficacy of 100%.

As to `Cc1snnc1C(=NOCc1cccc(NC(=O)C2COc3ccccc3O2)n1)c1ccccc1` (racemic) [Example 13], the efficacy in the data set on Phytophthora infestans is 100%.

As to `Cc1snnc1C(=NOCc1csc(NC(=O)C2CC(=O)c3cc(F)ccc3O2)n1)c1ccccc1` (mixture of isomers) [Example 7], the efficacy in the data set on Phytophthora infestans was found to be 98%. Further, the log partition coefficient (Log P) in data set [1] (HPLC) was 3.72.

`Cc1cccc2c1OC(C(=O)Nc1nc(CON=C(c3ccccc3)c3nnsc3C)cs1)CO2` (racemic) [Example 5] registered an efficacy in the data set on Phytophthora infestans of 100%.

With `Cc1snnc1C(=NOCc1cccc(NC(=O)C2COc3ccccc3O2)n1)c1ccccc1` (mixture of isomers) [Example 10], the efficacy with Plasmopara viticola is 98%; in the data set with Phytophthora infestans it was 95%.
